Test results: ChEMBL document CHEMBL1152063, “4-Substituted proline derivatives that inhibit angiotensin converting enzyme and neutral endopeptidase 24.11” (Bioorg Med Chem Lett, 1994)

How the values were obtained:
[1] = target: Angiotensin-converting enzyme (Homo sapiens, UniProt P12821); assay: In vitro inhibition against angiotensin converting enzyme (ACE)
Neprilysin = target: T1, Neprilysin (Rattus norvegicus, UniProt P07861); assay: In vitro inhibition against neutral endopeptidase 24.11 (NEP) in rat kidney cortex membrane; type: cell membranes
T1 sequence (P07861 whole entry): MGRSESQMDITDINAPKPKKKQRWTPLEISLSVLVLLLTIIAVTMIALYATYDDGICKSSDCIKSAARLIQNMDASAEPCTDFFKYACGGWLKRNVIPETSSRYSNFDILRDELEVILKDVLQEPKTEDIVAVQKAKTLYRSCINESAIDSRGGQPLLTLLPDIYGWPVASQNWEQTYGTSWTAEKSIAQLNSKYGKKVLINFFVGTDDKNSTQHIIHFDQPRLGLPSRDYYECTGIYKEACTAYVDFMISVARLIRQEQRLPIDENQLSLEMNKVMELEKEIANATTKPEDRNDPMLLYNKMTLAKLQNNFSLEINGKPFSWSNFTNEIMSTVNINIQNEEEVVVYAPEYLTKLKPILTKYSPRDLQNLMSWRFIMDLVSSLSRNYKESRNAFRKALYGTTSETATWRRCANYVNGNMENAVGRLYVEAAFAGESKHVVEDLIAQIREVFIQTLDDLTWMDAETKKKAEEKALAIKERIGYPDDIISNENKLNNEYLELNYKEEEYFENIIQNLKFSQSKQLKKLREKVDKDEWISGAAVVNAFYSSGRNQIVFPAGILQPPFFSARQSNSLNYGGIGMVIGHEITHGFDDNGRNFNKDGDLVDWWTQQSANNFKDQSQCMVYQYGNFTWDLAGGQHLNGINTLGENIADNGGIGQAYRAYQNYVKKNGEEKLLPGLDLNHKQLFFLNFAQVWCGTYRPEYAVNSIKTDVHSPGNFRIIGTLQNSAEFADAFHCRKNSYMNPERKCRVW

Angiotensin-converting enzyme, sequence (P12821 whole entry): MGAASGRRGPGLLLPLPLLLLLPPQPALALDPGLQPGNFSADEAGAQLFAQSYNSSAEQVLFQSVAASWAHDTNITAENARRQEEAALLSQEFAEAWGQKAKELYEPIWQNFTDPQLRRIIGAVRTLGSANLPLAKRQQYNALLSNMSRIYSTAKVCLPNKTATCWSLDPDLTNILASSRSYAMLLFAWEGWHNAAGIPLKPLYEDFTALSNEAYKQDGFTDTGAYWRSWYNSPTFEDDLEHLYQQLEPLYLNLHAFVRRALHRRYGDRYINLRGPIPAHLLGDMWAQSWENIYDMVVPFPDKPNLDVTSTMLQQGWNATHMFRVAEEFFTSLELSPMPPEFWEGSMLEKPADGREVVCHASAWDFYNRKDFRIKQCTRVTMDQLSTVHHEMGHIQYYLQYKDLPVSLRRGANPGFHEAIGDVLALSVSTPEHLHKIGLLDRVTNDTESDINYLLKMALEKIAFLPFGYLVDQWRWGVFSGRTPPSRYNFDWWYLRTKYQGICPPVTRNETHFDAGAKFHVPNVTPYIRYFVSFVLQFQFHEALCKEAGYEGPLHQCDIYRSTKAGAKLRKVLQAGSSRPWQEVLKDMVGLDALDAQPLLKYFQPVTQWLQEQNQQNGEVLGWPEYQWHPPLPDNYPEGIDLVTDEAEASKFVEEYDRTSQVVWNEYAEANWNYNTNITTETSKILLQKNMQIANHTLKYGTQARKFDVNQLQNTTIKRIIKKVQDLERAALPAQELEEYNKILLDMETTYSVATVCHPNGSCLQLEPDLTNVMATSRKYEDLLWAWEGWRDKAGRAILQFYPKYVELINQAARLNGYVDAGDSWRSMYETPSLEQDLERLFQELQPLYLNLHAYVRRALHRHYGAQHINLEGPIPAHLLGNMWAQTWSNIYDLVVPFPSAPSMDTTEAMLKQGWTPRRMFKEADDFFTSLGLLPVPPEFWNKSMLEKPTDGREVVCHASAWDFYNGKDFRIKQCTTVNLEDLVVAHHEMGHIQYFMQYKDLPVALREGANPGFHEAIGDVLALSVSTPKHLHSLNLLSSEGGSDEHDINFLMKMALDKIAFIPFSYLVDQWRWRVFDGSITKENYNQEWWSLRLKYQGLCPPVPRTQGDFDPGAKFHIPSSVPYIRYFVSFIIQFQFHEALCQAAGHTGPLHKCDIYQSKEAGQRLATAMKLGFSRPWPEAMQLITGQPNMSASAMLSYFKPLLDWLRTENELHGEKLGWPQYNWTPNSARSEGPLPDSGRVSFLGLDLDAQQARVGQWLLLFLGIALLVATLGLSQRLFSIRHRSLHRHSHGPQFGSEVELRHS

Row | Structure (SMILES) | IC50 [1] [nM] | IC50 (Neprilysin) [nM] | Ki (Neprilysin) [nM]
1 | C[C@H](N[C@@H](CCc1ccccc1)C(=O)O)C(=O)N1C[C@@H](NC(=O)C(CS)Cc2ccccc2)C[C@H]1C(=O)O (some centres not stated) | 42 | 149 | –
2 | C[C@H](CS)C(=O)N1C[C@@H](NC(=O)NC(CS)Cc2ccccc2)C[C@H]1C(=O)O (some centres not stated) | 147 | 118 | –
3 | C[C@H](N[C@@H](CCc1ccccc1)C(=O)O)C(=O)N1C[C@H](OC(=O)NC(CS)Cc2ccccc2)C[C@H]1C(=O)O (some centres not stated) | 506 | > 1000 | –
4 | C[C@H](CS)C(=O)N1C[C@@H](NC(=O)C(CS)Cc2ccc(-c3ccccc3)cc2)C[C@H]1C(=O)O (some centres not stated) | 696 | 20 | –
5 | C[C@H](CS)C(=O)N1C[C@H](NC(=O)C(CS)Cc2ccccc2)C[C@H]1C(=O)O (some centres not stated) | 18 | 849 | –

Next, values leading:

Row | IC50 [1] [nM] | IC50 (Neprilysin) [nM] | Ki (Neprilysin) [nM] | Structure (SMILES)
6 | 87 | 14 | – | C[C@H](CS)C(=O)N1C[C@@H](NC(=O)C(CS)Cc2ccccc2)C[C@H]1C(=O)O (some centres not stated)
7 | – | – | 26 | O=C(O)CCCCCCNC(=O)C(CS)Cc1ccccc1 (configuration not stated)
8 | 43 | 1240 | – | C[C@H](N[C@@H](CCc1ccccc1)C(=O)O)C(=O)N1C[C@@H](NC(=O)NC(CS)Cc2ccccc2)C[C@H]1C(=O)O (some centres not stated)
9 | 253 | > 1000 | – | C[C@H](N[C@@H](CCc1ccccc1)C(=O)O)C(=O)N1C[C@H](NC(=O)C(CS)Cc2ccccc2)C[C@H]1C(=O)O (some centres not stated)
